Where “and” joins values, the source holds several entries; their conditions need not be identical. Identical values can stand only once.
Columns and labels:
[1] = target: T1, ABCC4 (MRP4) (Homo sapiens, UniProt O15439); assay: ABCC4 vesicular transport (DHEAS), HEK293 inverted membrane vesicles; assay type: biochemical; details: concentrations up to 200 μM
T1 construct: purchased Solvo Biotechnology, Budapest; host or cells: HEK293
T1 sequence (O15439 1-1325): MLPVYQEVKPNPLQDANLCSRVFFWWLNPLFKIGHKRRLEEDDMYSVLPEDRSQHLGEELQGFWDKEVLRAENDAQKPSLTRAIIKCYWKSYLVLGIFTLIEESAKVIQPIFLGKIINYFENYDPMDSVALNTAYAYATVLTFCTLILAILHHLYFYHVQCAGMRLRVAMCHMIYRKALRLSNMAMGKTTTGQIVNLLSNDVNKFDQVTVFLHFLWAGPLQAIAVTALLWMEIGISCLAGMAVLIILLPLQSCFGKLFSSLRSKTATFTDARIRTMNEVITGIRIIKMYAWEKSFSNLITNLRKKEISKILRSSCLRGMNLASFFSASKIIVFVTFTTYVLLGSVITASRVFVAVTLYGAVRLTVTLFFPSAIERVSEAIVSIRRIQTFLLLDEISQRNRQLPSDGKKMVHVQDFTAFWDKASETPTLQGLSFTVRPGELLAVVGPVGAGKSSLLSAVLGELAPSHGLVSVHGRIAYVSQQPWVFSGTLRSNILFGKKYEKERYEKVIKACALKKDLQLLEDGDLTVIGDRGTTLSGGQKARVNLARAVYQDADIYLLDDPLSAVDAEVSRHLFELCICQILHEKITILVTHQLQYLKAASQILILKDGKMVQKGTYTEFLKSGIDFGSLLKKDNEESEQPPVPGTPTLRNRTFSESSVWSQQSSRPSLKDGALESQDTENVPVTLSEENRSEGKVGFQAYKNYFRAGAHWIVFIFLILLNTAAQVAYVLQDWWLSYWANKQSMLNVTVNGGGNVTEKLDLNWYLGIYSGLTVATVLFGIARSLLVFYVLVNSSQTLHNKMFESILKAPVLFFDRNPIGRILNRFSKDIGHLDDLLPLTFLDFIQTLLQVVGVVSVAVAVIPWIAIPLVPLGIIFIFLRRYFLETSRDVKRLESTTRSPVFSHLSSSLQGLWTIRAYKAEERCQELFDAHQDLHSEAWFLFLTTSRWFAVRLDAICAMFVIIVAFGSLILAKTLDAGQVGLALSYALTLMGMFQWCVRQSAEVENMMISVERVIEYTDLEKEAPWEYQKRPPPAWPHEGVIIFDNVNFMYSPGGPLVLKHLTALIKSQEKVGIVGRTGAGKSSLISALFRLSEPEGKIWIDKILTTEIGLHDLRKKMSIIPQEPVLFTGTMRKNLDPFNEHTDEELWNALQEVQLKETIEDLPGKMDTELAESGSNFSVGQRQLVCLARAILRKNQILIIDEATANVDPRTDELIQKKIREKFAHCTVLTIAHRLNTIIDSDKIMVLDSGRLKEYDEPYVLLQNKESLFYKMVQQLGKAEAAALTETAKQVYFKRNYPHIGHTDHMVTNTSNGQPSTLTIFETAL

[2] = target: T2, CNT2 (Homo sapiens, UniProt O43868); assay: CNT2-mediated uridine uptake in CNT2-MDCKII cells; assay type: cell-based
T2 construct: expressed in transfected cells; host or cells: MDCKII (lentiviral transduction)
T2 sequence (O43868 1-658): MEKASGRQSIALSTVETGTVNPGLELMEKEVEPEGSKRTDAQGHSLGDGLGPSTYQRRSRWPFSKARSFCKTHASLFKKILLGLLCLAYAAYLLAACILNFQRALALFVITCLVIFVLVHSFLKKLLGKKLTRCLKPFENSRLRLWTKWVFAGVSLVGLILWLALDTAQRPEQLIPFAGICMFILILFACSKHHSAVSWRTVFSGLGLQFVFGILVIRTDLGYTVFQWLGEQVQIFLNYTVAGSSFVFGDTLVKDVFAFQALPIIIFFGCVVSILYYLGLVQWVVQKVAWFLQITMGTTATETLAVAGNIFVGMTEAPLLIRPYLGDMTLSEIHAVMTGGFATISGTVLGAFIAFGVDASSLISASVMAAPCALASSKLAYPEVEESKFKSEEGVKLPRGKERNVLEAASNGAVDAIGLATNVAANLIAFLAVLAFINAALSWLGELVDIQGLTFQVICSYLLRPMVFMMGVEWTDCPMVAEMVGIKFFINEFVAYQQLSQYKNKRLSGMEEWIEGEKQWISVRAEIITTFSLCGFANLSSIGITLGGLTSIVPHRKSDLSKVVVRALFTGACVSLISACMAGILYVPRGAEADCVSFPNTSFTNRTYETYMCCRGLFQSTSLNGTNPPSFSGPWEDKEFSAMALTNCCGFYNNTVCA
Method: ENT and CNT transporter interactions were investigated in transporter-overexpressing cell lines. Madin-Darby Canine Kidney II (MDCKII) cell lines overexpressing the human uptake transporters CNT1, CNT2, ENT1, and ENT2 were generated via lentiviral transduction. Cell cultures were maintained in Dulbecco’s modified Eagle’s medium (DMEM) and 4500 mg/L of glucose supplemented with GlutaMax^TM, 10% v/v fetal bovine serum (FBS), 100 units/mL penicillin, and 100 µg/mL streptomycin (all from Gibco/ThermoFisher, Waltham, MA, USA) at 37 °C in 5% CO2 at 95% humidity. For uptake inhibition assays, transporter-expressing cells and mock-transduced control cells were seeded on 96-well tissue culture plates at a density of 1 × 10^5 cells/well. Twenty-four hours after seeding, cells were rinsed twice with Krebs-Henseleit buffer (KH buffer, pH 7.4) and then preincubated for 30 min with solutions containing serial dilutions of the test compounds in KH at room temperature. Following preincubation, the solutions were removed, the cells were rinsed twice with KH buffer, and coincubation was started with a suitable radiolabeled substrate and the diluted series of test compounds. Assay conditions were as follows: 1 µM uridine (traced with 0.1 µCi ^3H-Uridine/well), 30 s (CNT1), and 1 min (CNT2, ENT1) incubations; 1 µM adenosine (traced with 0.1 µCi ^3H-Adenosine/well) and 2 min (ENT2) incubation. All experiments were conducted at room temperature. […] To determine the amounts of accumulated radiolabeled substrates, cell lysates mixed with a liquid scintillation cocktail were measured with a MicroBeta2 microplate counter (PerkinElmer, Singapore).
Transporter-specific accumulation of the probe substrate was calculated using the following formula: ACCSpec = ACCTRP − ACCMock, where ACCTRP is the accumulation of the probe in transporter-expressing cells and ACCMock is the accumulation of the probe in control cells. Relative transporter-specific accumulation values were calculated as percentages of the control value (with vehicle only).

[3] = cited from earlier work

O=c1nc(NO)ccn1[C@@H]1O[C@H](CO)[C@@H](O)[C@H]1O [EIDD-1931]
effect on ATP-dependent DHEAS uptake by ABCC4/MRP4 [1]: no significant effects
inhibition of CNT2-mediated uridine uptake [2]: strong inhibition
IC50 ([2]; 1 µM uridine): 10.2 µM

CC(C)C(=O)OC[C@H]1O[C@@H](n2ccc(NO)nc2=O)[C@H](O)[C@@H]1O [EIDD-2801, Molnupiravir]
effect on ATP-dependent DHEAS uptake by ABCC4/MRP4 [1]: no significant effects
inhibition of CNT2-mediated uridine uptake [2]: less potently inhibited

CC(C)(C)[C@H](NC(=O)C(F)(F)F)C(=O)N1C[C@H]2[C@@H]([C@H]1C(=O)N[C@H](C#N)C[C@@H]1CCNC1=O)C2(C)C [Nirmatrelvir]
plasma peak concentration ([3]; Paxlovid 300 mg Nirmatrelvir and 100 mg Ritonavir twice daily, listed as NIR): around 2 μg/mL and 4–5 μM
observed plasma concentrations ([3]; recommended clinical dose of Paxlovid): 5 µM

Source: PMC10379611 (International Journal of Molecular Sciences, 2023)
